Data published in patent US11590116B2 (THERAVANCE BIOPHARMA R&D IP, LLC, priority 2019, dated 2023).
Where two headings read alike, the source gives them in different places.

Assays:
[1] = molecular target: T1, recombinant human ALK5 (TGF-βR1) protein (Homo sapiens, UniProt P36897); assay: Biochemical ALK5 (TGF-βR1) assay to measure pKi (LANCE Ultra ULight kinase assay); details: apparent pKi from pIC50 by Cheng-Prusoff, read-out: ALK5 pKi (converted)
T1 construct: purchased Life Technologies PR9075A
T1 sequence (P36897 34-503): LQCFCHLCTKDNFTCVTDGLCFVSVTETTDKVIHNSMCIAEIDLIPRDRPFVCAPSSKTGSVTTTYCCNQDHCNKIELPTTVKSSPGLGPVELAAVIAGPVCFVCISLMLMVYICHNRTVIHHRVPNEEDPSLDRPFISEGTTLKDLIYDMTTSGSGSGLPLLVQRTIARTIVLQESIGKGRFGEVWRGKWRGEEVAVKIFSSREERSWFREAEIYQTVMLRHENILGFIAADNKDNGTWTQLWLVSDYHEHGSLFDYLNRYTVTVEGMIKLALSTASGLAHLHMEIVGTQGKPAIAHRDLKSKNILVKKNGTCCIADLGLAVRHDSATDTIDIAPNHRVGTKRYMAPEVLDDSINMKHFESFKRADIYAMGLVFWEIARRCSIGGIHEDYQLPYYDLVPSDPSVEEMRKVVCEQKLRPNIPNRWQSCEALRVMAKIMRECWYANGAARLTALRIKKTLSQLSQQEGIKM
In short: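 Compounds (10 μM to 25 pM) preincubated 60 minutes at room temperature with enzyme, then reaction run 60 minutes at 37° C with ATP added as 125 μM (5× final). Stopped with EDTA plus Eu-anti-phospho-Topoisomerase 2-alpha (Thr1342) antibody, TR-FRET read at 665 nm; pIC50 converted to pKi via Cheng-Prusoff.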

[2] = test system: TGF-β-stimulated SMAD3 phosphorylation in BEAS-2B cells; assay: Cellular ALK5 potency assay, inhibition of TGF-β stimulated pSMAD3 formation in BEAS-2B cells; type: cell-based; details: Homo sapiens, read-out: BEAS2B pIC50 (converted)
In short: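 BEAS-2B human lung epithelial cells pre-treated 1 h at 37° C with compound in HBSS/25 mM HEPES/1% BSA, then stimulated 30 min with 10 ng/mL TGF-β (final). Lysates assayed for pSMAD3 by AlphaLISA; pIC50 from dose-dependent change versus stimulated untreated cells.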

[3] = inhibition of TGF-β stimulated pSMAD3 formation, BEAS-2B cells

| Ki [1] | Structure (SMILES) | IC50 [2, 3] | IC50 ([2]; BEAS-2B) |
| --- | --- | --- | --- |
| 0.0398 to 0.316 nM | Cc1cccc(-c2[nH]ncc2-c2ccc3ncc(C(=O)OCCN4CCCCC4)cc3c2)n1 [Compound 1173, 2-(1-piperidyl)ethyl 6-[5-(6-methyl-2-pyridyl)-1H-pyrazol-4-yl]quinoline-3-carboxylate] | 25.1 to 158 nM |  |
| 0.398 to 3.16 nM | Cc1cccc(-c2n[nH]cc2-c2ccc3nccc(NC(=O)CN4CCN(C(C)C)CC4)c3n2)n1 [Compound 839, 2-(4-isopropylpiperazin-1-yl)-N-[6-[3-(6-methyl-2-pyridyl)-1H-pyrazol-4-yl]-1,5-naphthyridin-4-yl]acetamide] | 25.1 to 158 nM |  |
| 0.398 to 3.16 nM | Cc1cccc(-c2n[nH]cc2-c2ccc3nccc(C(=O)NCCCCC(NC(=O)CN)C(=O)O)c3n2)n1 (racemic) [Compound 805, rac-(2S)-2-[(2-aminoacetyl)amino]-6-[[6-[3-(6-methyl-2-pyridyl)-1H-pyrazol-4-yl]-1,5-naphthyridine-4-carbonyl]amino]hexanoic acid] | 1580 to 10000 nM |  |
| 0.0398 to 0.316 nM | Cc1cccc(-c2[nH]cnc2-c2ccc3ncc(-c4ccc(CN5CCNCC5)nc4)cc3c2)n1 [Compound 1026, 6-[5-(6-methyl-2-pyridyl)-1H-imidazol-4-yl]-3-[6-(piperazin-1-ylmethyl)-3-pyridyl]quinoline] | 25.1 to 158 nM |  |
| 0.0398 to 0.316 nM | Cc1cccc(-c2[nH]ncc2-c2ccc3ncc(C(=O)O[C@H]4CCCNC4)cc3c2)n1 [Compound 1201, [(3S)-3-piperidyl] 6-[5-(6-methyl-2-pyridyl)-1H-pyrazol-4-yl]quinoline-3-carboxylate] | 25.1 to 158 nM |  |
| 0.0398 to 0.316 nM | Cc1cccc(-c2[nH]cnc2-c2ccc3ncc(C(=O)OC[C@@H]4CCCNC4)cc3c2)n1 [Compound 877, (R)-piperidin-3-ylmethyl 6-(5-(6-methylpyridin-2-yl)-1H-imidazol-4-yl)quinoline-3-carboxylate] | 25.1 to 158 nM |  |
| < 0.0316 nM | Cc1cccc(-c2[nH]cnc2-c2ccc3ncc(-c4csc(C(=O)O[C@H]5C[C@@H](N)C5)c4)cc3c2)n1 [Compound 1243, (3-aminocyclobutyl) 4-[6-[5-(6-methyl-2-pyridyl)-1H-imidazol-4-yl]-3-quinolyl]thiophene-2-carboxylate] | 25.1 to 158 nM |  |
| 0.398 to 3.16 nM | CCOC(=O)c1c(-c2cccc(F)c2)cnc2ccc(-c3c[nH]nc3-c3cccc(C)n3)nc12 [Compound 859, ethyl 3-(3-fluorophenyl)-6-[3-(6-methyl-2-pyridyl)-1H-pyrazol-4-yl]-1,5-naphthyridine-4-carboxylate] | 200 to 1260 nM |  |
| 0.0398 to 0.316 nM | Cc1cccc(-c2[nH]c(O)nc2-c2ccc3ncc(C4=CCC5(CCNCC5)CC4)cc3c2)n1 [Compound 1198, 4-[3-(3-azaspiro[5.5]undec-9-en-9-yl)-6-quinolyl]-5-(6-methyl-2-pyridyl)-1H-imidazol-2-ol] | 200 to 1260 nM |  |
| 0.398 to 3.16 nM | Cc1cccc(-c2n[nH]cc2-c2ccc3nccc(C(=O)NCCCCCCNC(=O)[C@@H]4CCCN4C(=O)CN4CCOCC4)c3n2)n1 (racemic) [Compound 809, 6-[3-(6-methyl-2-pyridyl)-1H-pyrazol-4-yl]-N-[6-[[rac-(2S)-1-(2-morpholinoacetyl)pyrrolidine-2-carbonyl]amino]hexyl]-1,5-naphthyridine-4-carboxamide] | 200 to 1260 nM |  |
| 0.0398 to 0.316 nM | CN[C@H]1CC[C@@H](OC(=O)c2cnc3ccc(-c4cn[nH]c4-c4cccc(C)n4)cc3c2)CC1 [Compound 1195, [4-(methylamino)cyclohexyl] 6-[5-(6-methyl-2-pyridyl)-1H-pyrazol-4-yl]quinoline-3-carboxylate] | 25.1 to 158 nM |  |

Further lines, the compound ahead of its results:

| Structure (SMILES) | Ki [1] | IC50 [2, 3] | IC50 ([2]; BEAS-2B) |
| --- | --- | --- | --- |
| Cc1cccc(-c2n[nH]cc2-c2ccc3ncc(N4CCN(CCO)CC4)cc3n2)n1 [Compound 639, 2-[4-[6-[3-(6-methyl-2-pyridyl)-1H-pyrazol-4-yl]-1,5-naphthyridin-3-yl]piperazin-1-yl]ethanol] | < 0.0316 nM | 25.1 to 158 nM |  |
| Cc1cccc(-c2[nH]cnc2-c2ccc3ncc(Nc4nc5n(n4)CCNC5)cc3c2)n1 [Compound 338, 6-(5-(6-methylpyridin-2-yl)-1H-imidazol-4-yl)-N-(5,6,7,8-tetrahydro-[1,2,4]triazolo[1,5-a]pyrazin-2-yl)quinolin-3-amine] | 0.0398 to 0.316 nM |  | 200 to 1260 nM |
| Cc1cccc(-c2[nH]ncc2-c2ccc3ncc(C(=O)OC4CCC5(CNC5)C4)cc3n2)n1 (centres unmarked) [Compound 62, 2-azaspiro[3.4]octan-6-yl 6-[5-(6-methyl-2-pyridyl)-1H-pyrazol-4-yl]-1,5-naphthyridine-3-carboxylate] | 0.0398 to 0.316 nM | 200 to 1260 nM |  |
| Cc1cccc(-c2n[nH]cc2-c2ccc3ncc(-c4nnn5c4NCC5)cc3n2)n1 [Compound 5, 7-(5,6-dihydro-4H-imidazo[1,2-c]triazol-3-yl)-2-[3-(6-methyl-2-pyridyl)-1H-pyrazol-4-yl]-1,5-naphthyridine] | < 0.0316 nM | 25.1 to 158 nM |  |
| Cc1cccc(-c2nc3ccccn3c2-c2ccc3ncc(-c4cn[nH]c4)cc3n2)n1 [Compound 469, 2-(2-(6-methylpyridin-2-yl)imidazo[1,2-a]pyridin-3-yl)-7-(1H-pyrazol-4-yl)-1,5-naphthyridine] | 0.0398 to 0.316 nM | < 20 nM |  |
| Cc1cccc(-c2n[nH]cc2-c2ccc3ncc(-c4ccnc(C(C)(C)C#N)c4)cc3n2)n1 [Compound 341, 2-methyl-2-[4-[6-[3-(6-methyl-2-pyridyl)-1H-pyrazol-4-yl]-1,5-naphthyridin-3-yl]-2-pyridyl]propanenitrile] | < 0.0316 nM | < 20 nM |  |
| COC(=O)[C@@H]1CN(CCNc2cnc3ccc(-c4nc[nH]c4-c4cccc(C)n4)cc3c2)CCN1 [Compound 717, methyl (2S)-4-[2-[[6-[5-(6-methyl-2-pyridyl)-1H-imidazol-4-yl]-3-quinolyl]amino]ethyl]piperazine-2-carboxylate] | 0.0398 to 0.316 nM | 25.1 to 158 nM |  |
| Cc1cccc(-c2n[nH]cc2-c2ccc3ncc(N4CC(C)NC(C)C4)cc3n2)n1 (centres unmarked) [Compound 28, 7-(3,5-dimethylpiperazin-1-yl)-2-[3-(6-methyl-2-pyridyl)-1H-pyrazol-4-yl]-1,5-naphthyridine] | < 0.0316 nM | 25.1 to 158 nM |  |
| Cc1cccc(-c2[nH]cnc2-c2ccc3ncc(NCCN(C)C4CNC4)cc3c2)n1 [Compound 593, N′-(azetidin-3-yl)-N′-methyl-N-[6-[5-(6-methyl-2-pyridyl)-1H-imidazol-4-yl]-3-quinolyl]ethane-1,2-diamine] | 0.0398 to 0.316 nM | 200 to 1260 nM |  |
| COC(=O)Cn1cc(-c2cnc3ccc(-c4c[nH]nc4-c4cccc(C)n4)nc3c2)cn1 [Compound 673, methyl 2-[4-[6-[3-(6-methyl-2-pyridyl)-1H-pyrazol-4-yl]-1,5-naphthyridin-3-yl]pyrazol-1-yl]acetate] | 0.0398 to 0.316 nM | 25.1 to 158 nM |  |
| Cc1cccc(-c2[nH]cnc2-c2ccc3ncc(C4=CCN(C(C)C)C4)cc3n2)n1 [Compound 253, 7-(1-isopropyl-2,5-dihydropyrrol-3-yl)-2-[5-(6-methyl-2-pyridyl)-1H-imidazol-4-yl]-1,5-naphthyridine] | 0.0398 to 0.316 nM | 25.1 to 158 nM |  |
| Cc1nc(-c2nc3ccccn3c2-c2ccc3ncc(-c4nc5n(n4)CCNC5)cc3n2)ccc1F [Compound 447, 2-[2-(5-fluoro-6-methyl-2-pyridyl)imidazo[1,2-a]pyridin-3-yl]-7-(5,6,7,8-tetrahydro-[1,2,4]triazolo[1,5-a]pyrazin-2-yl)-1,5-naphthyridine] | 0.0398 to 0.316 nM | 25.1 to 158 nM |  |
| Cc1cccc(-c2[nH]cnc2-c2ccc3ncc(-c4cccc5c4CNC5)cc3c2)n1 [Compound 636, 3-isoindolin-4-yl-6-[5-(6-methyl-2-pyridyl)-1H-imidazol-4-yl]quinoline] | 0.0398 to 0.316 nM | 25.1 to 158 nM |  |
| Cc1cccc(-c2n[nH]cc2-c2ccc3ncc(-c4cccs4)cc3n2)n1 [Compound 80, 2-[3-(6-methyl-2-pyridyl)-1H-pyrazol-4-yl]-7-(2-thienyl)-1,5-naphthyridine] | 0.0398 to 0.316 nM | 25.1 to 158 nM |  |
| Cc1cccc(-c2[nH]cnc2-c2ccc3ncc(C4=CC[C@H](NC(=O)C5CCNCC5)CC4)cc3c2)n1 [Compound 370, N-[(1R)-4-[6-[5-(6-methyl-2-pyridyl)-1H-imidazol-4-yl]-3-quinolyl]cyclohex-3-en-1-yl]piperidine-4-carboxamide] | 0.0398 to 0.316 nM | 1580 to 10000 nM |  |
| Cc1cccc(-c2[nH]cnc2-c2ccc3ncc(-c4cccc(N5CCNCC5)c4)cc3c2)n1 [Compound 581, 6-[5-(6-methyl-2-pyridyl)-1H-imidazol-4-yl]-3-(3-piperazin-1-ylphenyl)quinoline] | < 0.0316 nM | 25.1 to 158 nM |  |
| Cc1nc(-c2n[nH]cc2-c2ccc3ncc(N4CCC(N)C4)cc3n2)ccc1F (centres unmarked) [Compound 334, 1-[6-[3-(5-fluoro-6-methyl-2-pyridyl)-1H-pyrazol-4-yl]-1,5-naphthyridin-3-yl]pyrrolidin-3-amine] | 0.0398 to 0.316 nM | 25.1 to 158 nM |  |
